Results as given in ChEMBL document CHEMBL1126869, “Conformational analysis of a highly potent dicyclic gonadotropin-releasing hormone antagonist by nuclear magnetic resonance and molecular dynamics” (1993).
Bridge positions count the residues as written; N and C are the ends. Square brackets hold non-standard residues; d marks the D form. Peptide text beside a SMILES is read from it. dPhe(4-Cl) = N[C@H](Cc1ccc(Cl)cc1)C(=O)O; d2Nal = N[C@H](Cc1ccc2ccccc2c1)C(=O)O; Dap = NC[C@H](N)C(=O)O

Assay: Biological potency in the anti-ovulatory assay in rat (dosage rats ovulating/total rats)
Type: functional

| Compound | Dosage [µg] |
| --- | --- |
| CC(=O)N1CCC[C@H]1C(=O)N[C@H](Cc1ccc(F)cc1)C(=O)N[C@H](Cc1c[nH]c2ccccc12)C(=O)N[C@H]1CC(=O)NC[C@@H](C(N)=O)NC(=O)[C@@H]2CCCN2C(=O)[C@H](CCCN=C(N)N)NC(=O)[C@H](CC(C)C)NC(=O)[C@@H](Cc2ccc3ccccc3c2)NC(=O)[C@H](Cc2ccc(O)cc2)NC1=O | 10 |
| CC(=O)N[C@H](Cc1ccc2ccccc2c1)C(=O)N[C@H](Cc1ccc(Cl)cc1)C(=O)N[C@H](Cc1c[nH]c2ccccc12)C(=O)N[C@H]1CC(=O)NC[C@@H](C(N)=O)NC(=O)[C@@H]2CCCN2C(=O)[C@@H]2CCCCNC(=O)CC[C@H](NC1=O)C(=O)N[C@H](CCCN=C(N)N)C(=O)N[C@@H](CC(C)C)C(=O)N2 (Ac-[d2Nal][dPhe(4-Cl)][dW]DE[dR]LKP[Dap]-NH2; lactam 4-10, 5-8) | 5 |
| CC(C)C[C@@H]1C(=O)N[C@@H](CCCN=C(N)N)C(=O)N2CCC[C@@H]2C(=O)NCCC(=O)N2CCC[C@@H]2C(=O)N[C@@H](Cc2ccc(Cl)cc2)C(=O)N[C@H](Cc2c[nH]c3ccccc23)C(=O)N[C@@H](CO)C(=O)N[C@H](Cc2ccc(O)cc2)C(=O)N[C@@H](Cc2c[nH]c3ccccc23)C(=O)N1C | 1000 |
